# Reference: patent US9295697B2, “Episomal reprogramming with chemicals” (Cellular Dynamics International, Inc., priority 2009, dated 2016)
# Experiments:
# [1] = test system: human foreskin fibroblasts; test: Episomal reprogramming of human foreskin fibroblasts with small molecules on MEF feeder cells, alkaline phosphatase positive colonies (Example 2); format: cell-based
# Method: FIGS. 5A-5C. Improving episomal reprogramming efficiency with small molecules. FIG. 5A. Effects of PD0325901 (P, 0.5 μM), CHIR99021(C, 3 μM), A-83-01(A, 0.5 μM), hLIF (L, 1000 U/ml) and HA-100 (H, 10 μM) on episomal reprogramming. FIG. 5B Temporal requirement of small molecule treatment for improved episomal reprogramming. Transfected human foreskin fibroblasts were plated to MEF feeder cells. MEF-conditioned human ESC medium supplemented with 100 ng/ml bFGF (CM100) and small molecules was used to support reprogramming. Alkaline phosphatase positive iPSC colonies were counted on day 22-23 post-transfection. The number of iPSC colonies was from ˜0.33×10^6 input cells. Data shown are mean±standard error (s.e.m.) (n=3). FIG. 5C. Differentiation of the newly derived iPSCs (p3) in the presence of small molecules. […] The addition of bFGF in the culture medium had no effect. Black arrow: undifferentiated iPSC colonies; white arrows: differentiated colonies. Scale bars: 100 μm.
# FIGS. 6A-6D. Developing feeder-free conditions for episomal reprogramming. FIG. 6A. Effects of MEF feeder cells, Matrigel™ and culture media on episomal reprogramming. Transfected human foreskin fibroblasts (p6) were plated to MEF feeder cell-seeded or Matrigel™-coated 10-cm dishes, and subjected to different reprogramming culture conditions. Alkaline phosphatase positive (AP^+) colonies were counted on day 18-21 post-transfection. The number of AP+ colonies was from ˜0.33×10^6 input cells. Data shown are mean±s.e.m. (n=3). N2B27: DMEM/F12 medium supplemented with N-2 and B-27; N2B27-100: N2B27 medium supplemented with 100 ng/ml bFGF. *marks piPSCs. FIG. 6B. Bright-field images of a piPSC colony from test 2 and a human ESC-like iPSC colony from test 1, 3 and 4. Scale bars: 100 μm. FIG. 6C. Quantitative RT-PCR analysis of OCT4 and NANOG expression in piPSC clone 1 to 4 (p3). Total: both endogenous and transgene expression. Human H1 ESCs (H1ESC, p32) were used as a control. Data shown are mean±s.e.m. (n=3). FIG. 6D. Temporal requirement of small molecule treatment for feeder-free episomal reprogramming using defined culture media. Transfected human foreskin fibroblasts (p7) were plated to Matrigel™-coated 10-cm dishes. N2B27-100 medium supplemented with PCALH was used to support reprogramming for different time windows (stage 2) followed by mTeSR1 for expansion. Alkaline phosphatase positive iPSC colonies were counted on day 22 post-transfection. The number of iPSC colonies was from ˜0.33×10^6 input cells. Data shown are mean±s.e.m. (n=3).
# Episomal reprogramming vectors containing expression cassettes for human OCT4, SOX2, NANOG, LIN28, c-MYC, KLF4 and SV40LT transgenes were as previously described (Yu et al., 2009). Specifically, vector pEP4EO2SCK2MEN2L and pEP4EO2SET2K (combination 4) were used for reprogramming optimization. About 7.3 μg of vector pEP4EO2SCK2MEN2L and 3.2 μg of pEP4EO2SET2K were co-transfected into human neonatal foreskin fibroblasts via nucleofection (NHDF-VPD-1001 with U-20 program, Amaxa, Walkersville, Md.). Transfected fibroblasts (˜1.0×10^6 cells per nucleofection) were plated directly to 3×10-cm MEF-seeded dishes or 3×10-cm Matrigel™-coated dishes in fibroblast culture medium. The next day after transfection, fibroblast medium was replaced with MEF-conditioned human ESC medium supplemented with 100 ng/ml zbFGF (CM100), or chemically defined N2B27 medium (N2B27), or N2B27 medium supplemented with 100 ng/ml zbFGF (N2B27-100), or mTeSR1. The N2B27 medium consists of DMEM/F12 culture medium supplemented with N-2 supplement (1×, Invitrogen), B-27 supplement (1×, Invitrogen), 0.1 mM non-essential amino acids, 1 mM GlutaMAX, and 0.1 mM β-mercaptoethanol. Where applied, small molecules PD0325901 (P, 0.5 μM), CHIR99021(C, 3 μM), A-83-01(A, 0.5 μM) (all from Stemgent, San Diego, Calif.), hLIF (L, 1000 U/ml, Millipore, Billerica, Mass.) and HA-100 (H, 10 μM) were added to reprogramming culture. Culture medium was refreshed every two days. […]
# [2] = test system: human foreskin fibroblasts; test: Episomal reprogramming of human foreskin fibroblasts with chemical compounds on MEF feeders, alkaline phosphatase positive iPS cell colonies (Example 1); format: cell-based; settings: for effect on episomal reprogramming when added to PD0325901, CHIR99021 and A-83-01: in combination with PD0325901 (0.5 μM), CHIR99021 (3 μM), A-83-01 (0.5 μM)
# Text: FIGS. 1A-1C. Improving episomal reprogramming of human foreskin fibroblasts with small chemical compounds. FIG. 1A. Episomal reprogramming vectors. pEF: the eukaryotic elongation factor 1α promoter; pCMV: the cytomegalovirus immediate-early promoter. Transgenes and other features of vectors are indicated by different colors as shown. FIG. 1B. Effects of different combinations of chemical compounds on episomal reprogramming efficiency. FF medium: human foreskin fibroblast culture medium; CM: human ES cell culture medium previously conditioned with irradiated mouse embryonic fibroblast feeder cells. bFGF was used at 100 ng/ml final concentration. B: BIX01294 (1 μM); P: PD0325901 (0.5 μM); C: CHIR99021 (3 μM); A: A-83-01 (0.5 μM). Total: total # of alkaline phosphatase positive iPS cell colonies; Large: # of large-size good undifferentiated alkaline phosphatase positive iPS cell colonies. FIG. 1C. Images of a good iPS cell colony obtained by episomal reprogramming in the presence of chemical compounds. Left: bright-field; right: alkaline phosphatase staining.
# FIGS. 2A-2B. Improving episomal reprogramming of human foreskin fibroblasts with small chemical compounds. FIG. 2A. Effects of bFGF and different combinations of chemical compounds on episomal reprogramming efficiency. FF medium: human foreskin fibroblast culture medium; CM: human ES cell culture medium previously conditioned with irradiated mouse embryonic fibroblast feeder cells. bFGF was used at 100 ng/ml final concentration. H: HA-100 (10 μM); B: BIX01294 (1 μM); P: PD0325901 (0.5 μM); C: CHIR99021 (3 μM); A: A-83-01 (0.5 μM); L: hLIF (10 ng/ml). Total: total # of alkaline phosphatase positive iPS cell colonies; Large: # of large-size good undifferentiated alkaline phosphatase positive iPS cell colonies. FIG. 2B. Timing of chemical compound treatment on episomal reprogramming efficiency. CM supplemented with bFGF (100 ng/ml) and HA-100 (10 μM) was used in reprogramming culture.
# FIGS. 4A-4B. Episomal reprogramming in defined medium supplemented with chemical compounds. FIG. 4A. Effect of different culture medium on episomal reprogramming in the presence of PD0325901 (0.5 μM), CHIR99021 (3 μM), A-83-01 (0.5 μM) and hLIF (10 ng/ml). FF medium: human foreskin fibroblast culture medium; CM: human ES cell culture medium previously conditioned with irradiated mouse embryonic fibroblast feeder cells. bFGF was used at 100 ng/ml final concentration. H: HA-100 (10 μM); B: BIX01294 (1 μM); P: PD0325901 (0.5 μM); C: CHIR99021 (3 μM); A: A-83-01 (0.5 μM); L: hLIF (10 ng/ml). Total: total # of alkaline phosphatase positive iPS cell colonies; Large: # of large-size good undifferentiated alkaline phosphatase positive iPS cell colonies. FIG. 4B. Sketch of the three-step reprogramming process for the derivation of normal human ES cell-like iPS cells and piPS cells.
# For episomal reprogramming of human somatic cells, human foreskin fibroblasts, episomal vectors (FIG. 1A, 7.3 μg of pEP4EO2SCK2MEN2L and 3.2 μg of pEP4EO2SET2K) (Yu et al., 2009) were cotransfected into 1×10^6 cells via nucleofection (NHDF-VPD-1001 with program U-20, Amaxa, Walkersville, Md.). Transfected foreskin fibroblasts from each nucleofection were directly plated to 3×10-cm MEF-seeded dishes in fibroblast culture medium. For adult skin fibroblasts, 7.3 μg of pEP4EO2SCK2MEN2L and 6.4 μg of pEP4EO2SET2K were cotransfected into 1×10^6 cells via nucleofection (NHDF-VPD-1001 with program U-20, Amaxa). Transfected adult skin fibroblasts from each nucleofection were directly plated to 1×10-cm MEF-seeded dish in fibroblast culture medium due to lower cell survival. […]
# [3] = LIF added to PD0325901, CHIR99021 and A-83-01
compound,measurement,setting,value
"Cc1cccc(-c2nn(C(=S)Nc3ccccc3)cc2-c2ccnc3ccccc23)n1 [A-83-01, 3-(6-Methyl-2-pyridinyl)-N-phenyl-4-(4-quinolinyl)-1H-pyrazole-1-carbothioamide]","effect on episomal reprogramming, alone / on its own","[1]; CM100, MEF feeder cells",minimal effect
same,"effect on episomal reprogramming, together with the MEK inhibitor PD0325901","[1]; CM100, MEF feeder cells",minimal effect
COc1cc2nc(N3CCCN(C)CC3)nc(NC3CCN(Cc4ccccc4)CC3)c2cc1OC [BIX01294],"effect on reprogramming by episomal vectors, compound on its own",[2]; BIX01294 1 μM,could improve reprogramming
same,"effect on episomal reprogramming when added to PD0325901, CHIR99021 and A-83-01",[2],no or only slight benefit
Cc1cncc2cccc(S(=O)(=O)N3CCCNC[C@@H]3C)c12 [H-1152],replacement of HA-100 in episomal reprogramming,[1],could not be replaced
O=S(=O)(c1cccc2cnccc12)N1CCNCC1 [HA-100],"effect on episomal reprogramming, alone / on its own","[1]; CM100, MEF feeder cells",minimal effect
same,"episomal reprogramming efficiency in the presence of PD0325901, CHIR99021, A-83-01 and hLIF",[1]; HA-100 10 μM,further increased
Cc1ccc2c(c1)C(=O)C1(O)CCN(c3ccccc3)C1=N2 (centres unmarked) [blebbistatin],replacement of HA-100 in episomal reprogramming,[1],could not be replaced
hLIF: human leukemia inhibitory factor,effect of hLIF on episomal reprogramming efficiency,[1]; hLIF 1000 U/ml,did not significantly improve
same,proliferation of reprogramming intermediates,[1]; hLIF 1000 U/ml,increased
same,"first appearance of iPS cells, day post transfection",[2]; [3],~14 days
same,"first appearance of iPS cells, earlier by",[2]; [3],3 to 4 days
same,large iPS cell colonies,[2]; [3],more large iPS cell colonies
same,"effect on episomal reprogramming when added to PD0325901, CHIR99021 and A-83-01",[2],further facilitated
